The record followed here is ChEMBL document CHEMBL3872241, “Synthesis and bioactivity evaluation of 2,3-diaryl acrylonitrile derivatives as potential anticancer agents” (Bioorg Med Chem Lett, 2017).

The structures appear in SMILES notation. Active and inactive are the calls of the source. The rule behind the calls is not given here.

By IC50 is commonly meant the midpoint of a concentration-inhibition curve.

Data set [1] is described as follows: Cytotoxicity against human L02 cells assessed as cell growth inhibition at 100 uM after 48 hrs by MTT assay. Format: toxicity, cell-based. To be noted: read-out: GI. In general terms: Formazan colour is commonly taken as a measure of viable cells.
Data set [2] can be described thus: Cytotoxicity against human HeLa cells assessed as cell growth inhibition after 48 hrs by MTT assay. The format is functional, cell-based.
The test system of data set [3] is HeLa. Nature of the data set: Selectivity index, ratio of IC50 for human L02 cells to IC50 for human HeLa cells. Format: functional.
Data set [4] is described as follows: Cell cycle arrest in human HeLa cells assessed as accumulation at G0/G1 phase at 0.1 to 1 uM after 24 hrs by propidium iodide-based FACS analysis (reference value: 61.71%). Format: functional. (A flow cytometer gives signals particle by particle.)
Data set [5] is described as follows: Cytotoxicity against human Bel7402 cells assessed as cell growth inhibition after 48 hrs by MTT assay. The conditions noted are these: Bel-7402, 48 h. The format is functional, cell-based.
The nature of data set [6]: Cytotoxicity against human HCT116 cells assessed as cell growth inhibition after 48 hrs by MTT assay. The format is functional, cell-based. To be noted: HCT-116, 48 h.
The nature of data set [7]: Cell cycle arrest in human HeLa cells assessed as accumulation at S phase at 0.1 to 1 uM after 24 hrs by propidium iodide-based FACS analysis (reference value: 31.26%). The format is functional.
Data set [8] has as its system HCT-116. The data set is described as follows: Selectivity index, ratio of IC50 for human L02 cells to IC50 for human HCT116 cells. Format: functional.
The nature of data set [9]: Cytotoxicity against human L02 cells assessed as cell growth inhibition after 48 hrs by MTT assay. The format is toxicity, cell-based.
The nature of data set [10]: (§1) Cytotoxicity against human Bel7402 cells assessed as cell growth inhibition at 100 uM after 48 hrs by MTT assay. The format is functional. The conditions noted are these: Bel-7402, 48 h, read-out: GI.
The nature of data set [11]: Cell cycle arrest in human HeLa cells assessed as accumulation at G2/M phase at 0.1 to 1 uM after 24 hrs by propidium iodide-based FACS analysis (reference value: 7.12%). Format: functional.
In data set [12] the test system is HeLa. The data set is described as follows: Induction of apoptosis in human HeLa cells assessed as increase in early apoptotic cells at 0.1 uM after 24 hrs by Annexin V-FITC/propidium iodide based FACS analysis. The format is functional, cell-based.
Data set [13] concerns HeLa. The data set is described as follows: Antimigratory activity in human HeLa cells at 1 uM after 24 hrs by wound-scratch assay. Format: functional, cell-based.
Data set [14] deals with Bel-7402. Nature of the data set: Selectivity index, ratio of IC50 for human L02 cells to IC50 for human Bel7402 cells. The format is functional.
The nature of data set [15]: (§2) Cytotoxicity against human HCT116 cells assessed as cell growth inhibition at 100 uM after 48 hrs by MTT assay. To be noted: HCT-116, 48 h, read-out: GI. The format is functional.
A short description of data set [16]: Cytotoxicity against human HeLa cells assessed as cell growth inhibition at 100 uM after 48 hrs by MTT assay. The format is functional. The conditions noted are these: read-out: GI.
The nature of data set [17]: Cytotoxicity against human Caco2 cells assessed as cell growth inhibition at 0.3 uM by SRB assay. The format is functional. To be noted: Caco-2, read-out: GI. (The SRB assay estimates cell density from bound dye.)
Data set [18] in a line: Cell cycle arrest in human HeLa cells assessed as accumulation at G2/M phase at 50 uM after 24 hrs by propidium iodide-based FACS analysis (reference value: 7.12%). Format: functional.
Data set [19] deals with HCT-116. The data set is described as §2. Format: functional.
Data set [20] can be described thus: Cell cycle arrest in human HeLa cells assessed as accumulation at G0/G1 phase at 50 uM after 24 hrs by propidium iodide-based FACS analysis (reference value: 61.71%). Format: functional.
The subject of data set [21] is Bel-7402. The data set is described as §1. Format: functional.
Data set [22] can be described thus: Cell cycle arrest in human HeLa cells assessed as accumulation at S phase at 50 uM after 24 hrs by propidium iodide-based FACS analysis (reference value: 31.26%). Format: functional.

Consider `COc1cc(OC)cc(/C(C#N)=C/c2ccc(Br)cc2)c1`, for which, in data set [1], the inhibition at 48 h, 100 µM stood at 36%. Also, the values for the IC50 in data set [2], in [5] and in data set [6] were 4.2 µM, > 100 µM and 11.4 µM, respectively. In addition, the “Ratio IC50” value in data set [3] was >23.81; in data set [8], >8.79. For the same molecule, the Activity in [4] is 0.7%; in [7], 30.1%; in [11] it was 69.9%. Also, the IC50 at 48 h in [9] is > 100 µM. Besides, in data set [10], the inhibition of growth at 100 µM is 31.6%.
In the case of `CC(=O)O[C@H]1C(=O)[C@@]2(C)[C@H]([C@H](OC(=O)c3ccccc3)[C@]3(O)C[C@H](OC(=O)[C@H](O)[C@@H](NC(=O)c4ccccc4)c4ccccc4)C(C)=C1C3(C)C)[C@]1(OC(C)=O)CO[C@@H]1C[C@@H]2O` [PACLITAXEL], the half-inhibitory concentration (IC50) is 13 µM in [2], < 0.1 µM in [5] and < 0.1 µM in data set [6]. Moreover, the “Ratio IC50” value in data set [3] is >7.72; in data set [14], >1000; in data set [8] it was >1000. Besides, the result in [12] and in data set [13] was Active. Also, the figures for the Activity in data set [4], in data set [7] and in [11] were 1.03%, 28.5% and 70.6%, respectively. The IC50 at 48 h in data set [9] was > 100 µM.
Regarding `COc1cc(OC)cc(/C(C#N)=C/c2c(C)cc(C)cc2C)c1`, the inhibition at 48 h, 100 µM in [1] worked out at 28.1%. The IC50 in [2], in data set [5] and in [6] was > 100 µM throughout. Moreover, the inhibition of growth at 100 µM worked out at 28.9% in data set [15], 2.7% in [16] and 13.4% in [10]. For the same molecule, in data set [9], the IC50 at 48 h is > 100 µM.
Consider `COc1ccc(/C=C\c2cc(OC)cc(OC)c2)cc1` [8Z-3,4',5-TRIMETHOXYSTILBENE], for which the inhibition of growth at 0.3 µM in [17] came to 80%.
`CCOc1ccc(/C=C(\C#N)c2cc(OC)cc(OC)c2)cc1`: in data set [1], the inhibition at 48 h, 100 µM amounted to 34.7%. The IC50 in data set [2] stood at 7.77 µM; in [5], 0.66 µM; in [6], 0.13 µM. Also, the “Ratio IC50” value in [3] was >12.87; in [14] it was >151.52; in data set [8] it was >769.23. Further, the results for the Activity in [4], in [7] and in [11] were 0.74%, 47.6% and 51.6%, respectively. Further, in data set [9], the IC50 at 48 h is > 100 µM.
Consider `COc1cc(OC)cc(/C(C#N)=C/c2cccc(Br)c2)c1`, for which, in data set [1], the inhibition at 48 h, 100 µM was found to be 43.2%. The IC50 in data set [2], in data set [5] and in data set [6] was > 100 µM throughout. Moreover, the inhibition of growth at 100 µM in data set [15] stood at 38.2%; in data set [16], 40.2%; in data set [10], 19.8%. For the same molecule, the IC50 at 48 h in data set [9] was > 100 µM.
`COc1cc(OC)cc(/C(C#N)=C/c2ccccc2)c1`: the inhibition at 48 h, 100 µM in data set [1] turned out to be 36.4%. Moreover, the IC50 in data set [2], in data set [5] and in [6] was > 100 µM throughout. In addition, the figures for the inhibition of growth at 100 µM in data set [15], in data set [16] and in data set [10] were 27.1%, 28% and 34.8%, respectively. In data set [9], the IC50 at 48 h was > 100 µM.
In the case of `CCCCOc1ccc(/C=C(\C#N)c2cc(OC)cc(OC)c2)cc1`, the inhibition at 48 h, 100 µM in data set [1] is 35.7%. The IC50 in data set [2], in [5] and in data set [6] was > 100 µM each time. In addition, the values for the inhibition of growth at 100 µM in data set [15], in [16] and in [10] were 45%, 18.6% and 15.4%, respectively. In addition, the IC50 at 48 h in data set [9] is > 100 µM.
For the molecule `Oc1ccc(/C=C/c2cc(O)cc(O)c2)cc1` [RESVERATROL], the Activity is 6.29% in data set [18], 72% in data set [20] and 21.8% in data set [22]. In addition, the IC50 came out at 120 µM in data set [2], 139 µM in data set [5] and 62.6 µM in data set [6]. Besides, the “growth inhibition (GI)” value in data set [19] and in [21] was “Active” each time.
